Consider three compounds from publication PMC8165160, “Substrate Specificities and Inhibition Pattern of the Solute Carrier Family 10 Members NTCP, ASBT and SOAT” (Frontiers in Molecular Biosciences, 2021).

The target of one assay is T1, NTCP (Homo sapiens, UniProt Q14973).
T1 sequence (Q14973 1-349): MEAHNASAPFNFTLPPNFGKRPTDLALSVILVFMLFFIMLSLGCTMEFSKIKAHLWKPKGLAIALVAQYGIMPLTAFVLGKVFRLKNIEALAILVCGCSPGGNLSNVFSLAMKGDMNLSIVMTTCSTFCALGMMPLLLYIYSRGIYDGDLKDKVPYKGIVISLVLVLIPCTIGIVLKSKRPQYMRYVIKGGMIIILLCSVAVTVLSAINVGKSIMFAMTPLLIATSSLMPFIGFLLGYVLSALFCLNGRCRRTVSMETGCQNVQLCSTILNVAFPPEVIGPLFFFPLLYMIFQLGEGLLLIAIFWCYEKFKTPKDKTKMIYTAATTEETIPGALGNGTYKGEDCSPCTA
The experiment in a line: Binding of fluorescent myr-preS1-Al633 peptide to NTCP-HEK293 cells. The arrangement: The full-length open reading frames of NTCP, ASBT, and SOAT were cloned; expressed in transfected cells; host or cells: Flp-In T-REX HEK293 (NTCP-HEK293), tetracycline-induced.

Assay [1] addresses T2, ASBT (Homo sapiens, UniProt Q12908).
T2 construct: The full-length open reading frames of NTCP, ASBT, and SOAT were cloned; expressed in transfected cells; host or cells: Flp-In T-REX HEK293 (ASBT-HEK293), tetracycline-induced
T2 sequence (Q12908 1-348): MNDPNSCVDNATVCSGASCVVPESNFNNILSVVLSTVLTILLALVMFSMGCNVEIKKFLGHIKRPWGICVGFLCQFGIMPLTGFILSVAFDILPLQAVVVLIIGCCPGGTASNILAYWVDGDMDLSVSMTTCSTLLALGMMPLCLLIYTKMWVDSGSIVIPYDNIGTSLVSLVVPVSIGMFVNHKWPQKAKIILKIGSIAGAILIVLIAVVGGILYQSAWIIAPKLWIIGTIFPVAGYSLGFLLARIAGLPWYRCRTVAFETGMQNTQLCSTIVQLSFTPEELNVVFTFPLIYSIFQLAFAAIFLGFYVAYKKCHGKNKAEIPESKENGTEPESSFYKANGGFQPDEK
Put plainly: Transport inhibition in ASBT-HEK293 cells. In kind it is cell-based. The note with it: substrate inhibitors, 1 min after 5 min preincubation. How it is done: Cells were washed three times with PBS and were preincubated with the respective inhibitor in sodium transport buffer for 5 min at 37°C. Uptake was initiated by adding the respective radiolabeled substrate to the well and incubating for a fixed time as indicated in the figures at 37°C. Transport was terminated by removing the transport buffer and washing five-times with ice-cold PBS. Cell monolayers were lysed in 1 N NaOH with 0.1% SDS and the cell-associated radioactivity and protein content was determined as described above. For uptake inhibition with the myr-preS1 peptide the sodium transport buffer contained additionally MEM-amino acid solution (ThermoFisher) at 1:50 dilution.
All transport or inhibition graphs were generated with GraphPad Prism 6.0 (GraphPad). Determination of IC50 values was done by nonlinear regression analysis using the equation log (inhibitor) vs. response settings. If not stated otherwise in the legends all data represent means ± SD of at least triplicate determinations of representative experiments.
FIGURE 3 Inhibition of NTCP, ASBT, and SOAT with substrate inhibitors. Transport of [^3H]TC, [^3H]TLC, and [^3H]DHEAS was analyzed in NTCP-HEK293, ASBT-HEK293, and SOAT-HEK293 cells in the presence of the substrate inhibitors TC, TLC, and DHEAS at increasing concentrations ranging from 100 nM till 1000 µM. After 5 min of preincubation with the respective inhibitory compound, 200 nM [^3H]TLC, [^3H]TC or [^3H]DHEAS were added for additional 1 min and the cell lysates were analyzed by liquid scintillation counting. Unspecific uptake of HEK293-FlpIn cells was set to 0%. Carrier-specific uptake without inhibitor was set to 100%.
Transport of [^3H]TC, [^3H]TLC, and [^3H]DHEAS was analyzed in NTCP-HEK293, ASBT-HEK293, and SOAT-HEK293 cells in the presence of different supposed non-substrate triterpenoid inhibitors as indicated at increasing concentrations ranging from 100 nM till 1000 µM. After 5 min of preincubation with the respective inhibitory compound, 1 µM [^3H]TLC, [^3H]TC or [^3H]DHEAS were added for additional 10 min at 37°C and the cell lysates were analyzed by liquid scintillation counting. Experiments performed without inhibitor were set to 100%. Means of negative controls were subtracted to calculate net transport rates (expressed as percentage of control). Data represent means ± SD of quadruplicate determinations of representative experiments.

Assay [2] deals with T2, ASBT. Put plainly: Substrate screening: sodium-dependent uptake of radiolabeled compounds in ASBT-HEK293 cells. The assay is classed as cell-based. The note with it: radiolabeled bile acids 1 µM, 30 min, ASBT-HEK293, vs sodium-free control. The method, then: Stably SLC10 transporter transfected NTCP-HEK293, ASBT-HEK293, SOAT-HEK293 cells and the HEK293-FlpIn maternal cell line were seeded on 24-well plates (if not stated otherwise for individual assays). Well plates were coated with poly-D-lysine prior to seeding of 125,000 cells per well. Cells were grown with 1 ml of standard medium per well with or without tetracycline ([…]) for 72 h to induce carrier expression before respective assays were started. HEK293-FlpIn cells were cultivated with standard medium and served as control.
Uptake experiments were initiated by replacing the preincubation buffer by 500 μL transport buffer containing the radiolabeled test compound and were performed at 37°C. Transport was terminated by removing the transport buffer and washing five-times with ice-cold PBS. Cell monolayers were lysed in 1 N NaOH with 0.1% SDS and the cell-associated radioactivity was determined by liquid scintillation counting.
FIGURE 1 Comparative substrate screening for bile acids and sulfated steroids in NTCP-, ASBT-, and SOAT-HEK293 cells. Transport assays were performed with the indicated substrates in NTCP-HEK293, ABST-HEK293, SOAT-HEK293, and HEK293-FlpIn cells. Cells were washed and equilibrated with Na^+-containing transport buffer (filled bars) or with Na^+-free transport buffer (open bars) at 37°C. For uptake, cells were incubated with radiolabeled steroid compounds at a final concentration of 200 nM in Na^+-containing or Na^+-free transport buffer for 10 min. Radiolabeled bile acids were used at 1 µM concentrations and transport was analyzed over 30 min. HEK293-FlpIn cells served as additional controls. After the indicated time intervals, cells were washed with ice-cold PBS, lysed and subjected to liquid scintillation counting. […] 3-OH, trihydroxylated BAs; 2-OH, dihydroxylated BAs; 1-OH, monohydroxylated BAs.

Counter-ions that a name gives are not always drawn. Like-named read-outs stand apart in the source and are kept apart here.

Procedure for NTCP: NTCP-HEK293 cells were seeded into 24-well-dishes as described above. For every set of induced wells an equal number of not-induced wells were used as respective background controls. Cells were washed three times with PBS and then preincubated with sodium transport buffer supplemented with MEM-amino acid solution (ThermoFisher) at 1:50 dilution at 37°C for 5 min. The fluorescent myr-preS1-Al633 peptide was added with a final concentration of 10 nM and binding experiments were performed over 10 min at 37°C. […] For calculation of the NTCP-specific binding signal, the mean background signal from the not-induced cells was subtracted. Net binding rates in the absence of any inhibitor were set to 100%.
(B) Binding of the fluorescent myr-preS1-Al633 peptide was analyzed in NTCP-HEK293 cells in the presence of increasing concentrations of TC, DHEAS, or TLC. […] Fluorescence was quantified by a fluorescence reader and values are expressed as percentage of control.

`C[C@]12CC[C@H](OS(=O)(=O)O)CC1=CC[C@@H]1[C@@H]2CC[C@]2(C)C(=O)CC[C@@H]12` [DHEAS, Dehydroepiandrosterone sulfate]: the IC50 is 52 µM on NTCP; 453 µM against ASBT [1] (ASBT IC50, substrate [3H]TC, 200 nM [3H]TC); over 1000 µM on ASBT [1] (ASBT IC50, substrate [3H]TLC, 200 nM [3H]TLC).

Take `C[C@H](CCC(=O)NCCS(=O)(=O)O)[C@H]1CC[C@H]2[C@@H]3[C@H](O)C[C@@H]4C[C@H](O)CC[C@]4(C)[C@H]3C[C@H](O)[C@]12C` [Taurocholic acid]: the “Transport activity grading ASBT (mean uptake)” value on ASBT [2] is “++ (“++” for values between 500 and 1000)”.

As to `C[C@H](CCC(=O)NCCS(=O)(=O)O)[C@H]1CC[C@H]2[C@@H]3CC[C@@H]4C[C@H](O)CC[C@]4(C)[C@H]3CC[C@]12C` [Taurolithocholic acid], the IC50 at NTCP (10 nM myr-preS1-Al633, 10 min, 37°C, NTCP-HEK293, read-out: IC50 for inhibition of myr-preS1 peptide binding to NTCP) was determined as 4.3 µM; on ASBT [1] (200 nM [3H]TC, read-out: ASBT IC50, substrate [3H]TC) it was 1.9 µM; at ASBT [1] (200 nM [3H]TLC, read-out: ASBT IC50, substrate [3H]TLC) it was 4 µM. Besides, the “Transport activity grading ASBT (mean uptake)” value on ASBT [2] is listed as “+++ (“+++” for values above 1000 pmol/mg protein/30 min)”.
